# Assays:
# [1] = system: SUDHL 6 cells; assay: Measurement of IKE PEG-PLGA cellular activity (CellTiter-Glo, 24 h); assay type: cell-based; conditions: fer-1 co-treatment
# Method: DLBCL cells or HT-1080 cells were plated at 2,000 cells per well in white 384-well plates (32 μL per well) in technical duplicates and incubated overnight. The cells were then treated with 8 μL medium containing a two-fold dilution series of vehicle 1 (DMSO), IKE, Fer-1, vehicle 2 (unfunctional PEG-PLGA nanoparticles), or IKE PEG-PLGA nanoparticles. The final concentration of IKE in PEG-PLGA nanoparticles were measured by LC-MS as described in the sections below. After 24 h incubation with compounds, 40 μL of 50% CellTiter-Glo (Promega) 50% cell culture medium was added to each well and incubated at room temperature with shaking for 15 min. Luminescence was measured using a Victor X5 plate reader (PerkinElmer). All cell viability data were normalized to the DMSO vehicle condition. Experiments were performed in three independent times with different passages for each cell line.
# [2] = system: SUDHL6 cells; assay: C-11 BODIPY lipid peroxidation measurement (flow cytometry); assay type: cell-based; conditions: 10 μM fer-1 co-treatment
# Method: 0.20 million SUDHL-6 cells were seeded in sixc^− well plates and treated with DMSO, IKE, or Fer-1 at specific concentration. The final cell density of 0.05 million cells/mL. After 24 h, cells were harvested by centrifuging at 300×g for 5 min. Cells were resuspended in 500 μL HBSS containing 2 μM C11-BODIPY (BODIPY 581/591 C11) (Thermo Fisher Scientific, D3861) and incubated at 37° C. for 15 min. Cells were pelleted and resuspended in HBSS. Fluorescence intensity was measured on the FL1 channel with gating to record live cells only (gate constructed from DMSO treatment group). A minimum of 10,000 cells were analyzed per condition.
# [3] = system: SUDHL6 cells; assay: qPCR analysis of gene expression in cell culture; assay type: cell-based; conditions: SUDHL6 cells
# Method: To perform qPCR analysis in cell culture, DLBCL cells were treated with 0-10 μM IKE, Fer-1, or β-Me for the indicated times. RNA was extracted using the Qiashredder and Qiagen RNeasy Mini kits (Qiagen) according to the manufacture's protocol. 2 μg RNA from each sample was reversed transcribed to cDNA using a High Capacity cDNA Reverse Transcription Kit (Thermo Fisher Scientific, 4368814). Quantitative PCR reactions were performed using Power SYBR Green PCR Master Mix (Applied Biosystems) with triplicate measurement on ViiA 7 Real-Time PCR instrument (Thermo Fischer). HPRT1 was used as an internal reference. Differences in mRNA levels compared with HPRT1 were computed between vehicle and experimental groups using the ΔΔCt method. The primers used in the study were listed below.
# [4] = system: DLBCL cell lines; assay: Fer-1 co-treatment rescue of IKE-induced cell death (CellTiter-Glo); assay type: cell-based; conditions: co-treatment with IKE, 24 hours
# Method: The cell viability was measured by co-treating cells with a two-fold series dilution of IKE (starting from 100 μM) and two-fold series dilution of Fer-1 (starting from 200 μM) for 24 hours followed by a Cell Titor-Glo luminescent cell viability test. […] Data are plotted as the mean±s.d., n=2 biologically replicates. Three independent experiments were performed with similar results.
# DLBCL cells were plated at 10,000 cells per well in white 384-well plates (32 μL per well) in technical duplicates and incubated overnight. The cells were then treated with 8 μL medium containing a two-fold dilution series of vehicle (DMSO), IKE (starting from 100 μM) with or without Fer-1 (starting from 200 μM). After 24 h incubation, 40 μL of 50% CellTiter-Glo (Promega) 50% cell culture medium was added to each well and incubated at room temperature with shaking for 15 min. Luminescence was measured using a Victor X5 plate reader (PerkinElmer). All cell viability data were normalized to the DMSO vehicle condition. Experiments were performed three independent times with different passages for each cell line.
# [5] = Erastin and IKE solubility measurements (nephelometry); assay type: physicochemical
# Method: Solubility measurement samples were prepared in a 96-well Corning Costar plate with two at 1% and 5% DMSO v/v with a total sample volume of 200 μL in MilliQ water. A BMG Labtech NEPHELOstar nephelometer was used to measure turbidity of the samples with the following parameters per the instrument manufacturer: Gain=80, Laser Focus=2.50 mm, and Laser Intensity=90%. Samples were shaken in the nephelometer by orbital shaking for 3 s prior to the turbidity measurement. Sample values were blanked in the instrument software using the corresponding water and DMSO condition values. Turbidity 4000 NTU Calibration Standard-Formazin (Millipore-Sigma) was used as a positive control for all turbidity measurements. The turbidity of each sample was measured within 20 minutes of initial preparation. After the initial measurement, the sample plates were covered with aluminum sealing film and allowed to sit overnight at room temperature prior to re-measuring.
# [6] = system: SUDHL-6 cells; assay: Free fatty acid cell survival test with or without IKE (CellTiter-Glo); assay type: cell-based; conditions: for toxicity of free fatty acid to cells: 100 μM, 24 hours; for effect of free fatty acid on IKE-induced ferroptosis: 10 μM fatty acid with IKE
# Description: Relative Area Under Curve (AUC) to DMSO cotreatment was used to indicate the sensitization or protection effect of free fatty acids to IKE-induced ferroptosis.
# [7] = system: GSH; conditions: Narang et al., 2007; Lo et al., 2010; cited from earlier work
# [8] = system: SUDHL6 cells; assay: Reduced glutathione measurement in cell culture (Fluorometric-Green); assay type: cell-based; conditions: 10 μM β-ME co-treatment, 24 h
# Method: 2.4 million cells were incubated with DMSO, IKE, or β-mercaptoethanol (β-Me) at a density of 0.2 million cells/mL for 24 h. Cells were collected and washed with cold PBS once. Cell number was counted by Vi-Cell. Cells were resuspended in ice cold RIPA buffer (Thermo Fisher Scientific, 89900) with 100 μL/one million cells. Samples were centrifuged for 15 min at 4° C. at 17,000×g. The resulting supernatant was deproteinized using a trichloroacetic acid and sodium bicarbonate solution and kept on ice. The sample was diluted with assay buffer provided in GSH/GSSG Ratio Detection Assay Kit (Abcam, ab13881) ten-fold. Reduced glutathione (GSH) levels were determined using Fluorometric-Green provided in the kit following the manufacture's protocol. 384-well (Corning) low volume black flat bottom polystyrene non-treated microplates 1230F99 were used in this experiment.
structure (smiles),measurement,setting,value
"CCOC(=O)c1ccc(NC2CCCCC2)c(N)c1 [fer-1, ferrostatin-1, reference compound]",effect of co-treatment on cell death induced by IKE and IKE PEG-PLGA NPs,[1],rescued cell death
same,effect of co-treatment on IKE-induced lipid ROS signal (C11-BODIPY),[2],inhibited this signal
same,effect of co-treatment on IKE-induced PTGS2 upregulation,[3]; 10 μM Fer-1 with 500 nM IKE for 6 hours,prevented
same,effect of co-treatment on IKE-induced CHAC1 upregulation,[3]; Fer-1 co-treatment,did not inhibit
same,effect of co-treatment on cell death induced by IKE,[4],rescued cell death
"CCOc1ccccc1-n1c(C(C)N2CCN(C(=O)COc3ccc(Cl)cc3)CC2)nc2ccccc2c1=O (stereo not shown) [erastin, reference compound]",water solubility (in words),[5],low water solubility
CCCCC/C=C\C/C=C\C/C=C\CCCCC(=O)O [γ-linolenic acid],toxicity of free fatty acid to cells,[6],toxic to cells
O=C(O)c1cc(/N=N/c2ccc(S(=O)(=O)Nc3ccccn3)cc2)ccc1O [sulfasalazine],IC50 for GSH depletion,[7],millimolar range
"OCCS [β-ME, β-mercaptoethanol, reference compound]","effect of co-treatment on IKE-induced upregulation of SLC7A11, CHAC1 and PTGS2 mRNAs",[3]; 10 μM β-Me with 500 nM IKE for 6 hours,prevented
same,effect of co-treatment on GSH depletion by IKE,[8],reversed
CCCCC/C=C\C/C=C\C/C=C\C/C=C\CCCC(=O)O [arachidonic acid],toxicity of free fatty acid to cells,[6],toxic to cells
CCCCCC/C=C\CCCCCCCC(=O)O [palmitoleic acid],effect of free fatty acid on IKE-induced ferroptosis,[6],protected against ferroptosis
CCCCCCCC/C=C\CCCCCCCC(=O)O [oleic acid],effect of free fatty acid on IKE-induced ferroptosis,[6],protected against ferroptosis

# Reference: patent US20210267978A1, “NANOPARTICLE FORMULATIONS OF IKE AND METHODS OF USE THEREOF” (The Trustees of Columbia University in the City of New York, priority 2018, published 2021)
